# In patent publication US7527952B2 (Vertex Pharmaceuticals Incorporated, priority 1996, dated 2009):
# Columns and labels:
# [1] = compared with MPA; cited from earlier work
# [2] = system: human type II IMPDH mutants of Ser 275, Ser 327 and Gln 368; experiment: MPA inhibition of IMPDH mutants of other active site residues; format: biochemical; conditions: mutations of Ser 275, Ser 327 and Gln 368
# Protocol: Residues which make direct contact with MPA also were modified.
# Cultures (500 ml) were grown at 37° C. for 14 to 16 hours after IPTG induction, and typically yielded 2 grams of cell paste. Cells were resuspended in 50 mM Tris, pH 8.0, 150 mM KCl, 3 mM EDTA, 2 mM DTT buffer containing 10% urea, and then lysed by addition of lysozyme (1 mg/g cell paste) and sonication. IMPDH wild-type and mutant proteins were precipitated from crude lysates by 25% w/v ammonium sulfate. Up to 150 mgs of at least 65%-70% pure IMPDH was obtained by this single purification step. The partially purified IMPDH was resuspended in 50 mM Tris, pH 8.0, 100 mM KCl, 3 mM EDTA, 2 mM DTT, 10% glycerol buffer and used for kinetic analysis. Second order rate constants (k cat/Km, M^−1sec^−1) were calculated from IMP titration data at saturating (400 mM). NAD concentration obtained by monitoring the rate of NADH production at 340 nm at 37° C. […] Ki app. values for MPA were obtained from the rate vs. inhibitor data of IMPDH mutants at saturating IMP and NAD concentrations.
# [3] = system: murine blastoma cells; conditions: cells selected for resistance, carrying the Thr 333 to Ile mutation; cited from earlier work
Compound,fold less potent than MPA in a cellular assay [1],effect of mutation on drug inhibition [2],increased resistance to MPA [3]
COc1c(CC=C(C)CCC(=O)O)cc2c(c1C)COC2=O [des-hydroxy-MPA],"at least 1,000 fold",,
mycophenolic acid [MPA],,little effect,"10,000 fold"
